Data on 22 molecules can be found in patent US8952003B2, “Sterol derivative” (Kyowa Hakko Kirin Co., Ltd, priority 2009, dated 2015).

Molecules are shown by their SMILES.

One assay has as its system Rat adult neural stem cell line ANSC-7 cells. Put plainly: Proliferation promoting activity on neural stem cells (Test Example 1). The class given is cell-based. To be noted: at 1.0 nmol/L, relative value, negative control (DMSO) = 100%, wells without cells = 0%, absorbance at 490 nm. The procedure:
Rat adult neural stem cell line ANSC-7 cells prepared by the method described in the following Reference Test Example 1 were suspended in assay medium at a density of 1.6×10^5 cells/mL; inoculated at 0.1 mL in a 96 well plate (manufactured by Costar) of which surface was coated with polyornithine and laminin; and cultured overnight at 37° C. under an atmosphere of 5% CO2. Thereafter, 50 μL of the culture supernatant was removed, and 50 μL of a test compound which was serially diluted with the assay medium to 2 times of the final concentration or DMSO (negative control) was added to each well. For the serial dilution of a test compound, non-specific adsorption was minimized by using ProteoSave 96 U plates (manufactured by SUMILON), siliconized 1.5 mL tubes (manufactured by Assist) and Pitarack siliconized tips (manufactured by Nacalai). After the culturing for 48 hours, 50 μL of the culture supernatant was replaced by 50 μL of the assay medium containing 0.1% bovine fetal serum. Furthermore, after the culturing for 48 hours, Living Cell Count Reagent SF (manufactured by Nacalai Tesque) was added at the volume of 10 μL per well to the medium. After the culturing for 3 hours at 37° C. in the incubator which was set at 5% CO2, the resulting solution was stirred for one minute and then the absorbance at 490 nm (control wavelength 655 nm) was measured by using Microplate Spectrophotometer Emax (manufactured by Molecular Devices). By regarding the measured value of well to which the cells were not inoculated as 0%, and the measured value of negative control as 100%, relative values in the test compound addition group were calculated.
After putting a 7-week-old Sprague Dawley Rat to sleep by ether anesthesia and subsequent decapitation, the skull was cut open from the parietal region to extract the brain. Under a microscope, tissues including circumventricular region were isolated from the extracted brain by using ophthalmic scissors and tweezers. The tissues including circumventricular region were cut into fragments of about 1 mm^3 using ophthalmic scissors and scalpels and then subjected to 30 minutes of digestion reaction at 37° C. in 5 mL of Hanks' buffer (HBSS buffer, manufactured by Invitrogen) containing 2.5 U/mL of papain, 250 U/mL of DNase (all manufactured by Worthington, Freehold, N.J.) and 1 U/mL of a neutral protease (Dispase, manufactured by Boehringer-Mannheim Corp.). The mixture of cells and tissues obtained by the reaction was washed three times with DMEM (manufactured by Invitrogen) containing 10% fetal bovine serum (manufactured by Hyclone) and then dissolved in the DMEM containing 10% fetal bovine serum, followed by removing the undigested materials using a nylon mesh of […].
The resulting crude cells extract was cultured overnight on a culture dish of 10 cm, in an incubator of 37° C. using DMEM/F12 medium (manufactured by Invitrogen) containing 10% fetal bovine serum. On the next day, the medium was replaced with DMEM/F12 containing 1% of N-2 additives (manufactured by Invitrogen) and 20 ng/mL of FGF 2 (manufactured by Pepro Tech) and the culturing was started. Once in 3 days, half of the medium was replaced with new DMEM/F12 containing 1% of N-2 additives and 20 ng/mL of FGF 2 and the culturing was continued.
When a small colony consisting of small cells was formed, it was treated with 1% trypsin for 30 seconds to 1 minute, and the cells detached were harvested. The harvested cells were inoculated on a multiple well culture dish (manufactured by Fisher Scientific) which had been coated at room temperature overnight using 10 μg/mL of polyornithine (manufactured by Sigma) and at 37° C. overnight using 5 μg/mL of mouse EHS tumor-derived laminin (Becton Dickinson), and the culturing was continued.
By continuing the above-mentioned culturing, small cells having small protrusion and thickness were concentrated. The cells were used as adult neural stem cells in the above-mentioned test (Test Example 1).
With `CC(C)CCC[C@@H](C)[C@H]1CC[C@H]2C3=C(CC[C@]12C)[C@@]1(C)C[C@@H](O)[C@H](O)C[C@@H]1C(=O)O3` [Compound 53, (2R,3R,5S)-2,3-Dihydroxy-7-oxa-8-cholesten-6-one], the activity at 0.001 µM is at least 125%. On the same count and under the same terms, the same measure for `CC(C)CCC[C@@H](C)[C@H]1CC[C@H]2C3=C(CC[C@]12C)[C@@]1(C)CC[C@H](OCCO)C[C@@H]1C(=O)O3` [Compound 31, (3S,5S)-3-(2-Hydroxy)ethoxy-7-oxa-8-cholesten-6-one]: at least 125%; for `C=CCOC[C@@H](C)[C@H]1CC[C@H]2C3=C(CC[C@]12C)[C@@]1(C)CC[C@H](OCOC)C[C@@H]1C(=O)O3` [Compound 66, (1R,3aR,5aS,7S,9aS,11aR)-1-[(S)-1-Allyloxypropan-2-yl]-7-methoxymethoxy-9a,11a-dimethyl-1,2,3,3a,5a,6,7,8,9,9a,11,11a-dodecahydrobenzo[c]cyclopenta[h]chromen-5(10H)-one]: at least 125%; for `CC(C)CCC[C@@H](C)[C@H]1CC[C@H]2C3=C(CC[C@]12C)[C@@]1(C)C[C@@H](O)C(=O)C[C@@H]1C(=O)O3` [Compound 48, (2R,5S)-2-Hydroxy-7-oxa-8-cholesten-3,6-dione]: at least 125%. Still for that read-out and setting: the same measure for `CC(CO)CCC[C@H](C)[C@H]1CC[C@H]2C3=C(CC[C@]12C)[C@@]1(C)CC[C@H](O)C[C@@H]1C(=O)O3` (stereo partly shown) [Compound 79, 7-Oxa-cholest-8(9)-en-6-on-3,26-diol]: at least 125%; for `CC(C)CNC[C@@H](C)[C@H]1CC[C@H]2C3=C(CC[C@]12C)[C@@]1(C)CC[C@H](O)C[C@@H]1C(=O)O3` [Compound 83, (1R,3aR,5aS,7S,9aS,11aR)-7-Hydroxy-1-[(S)-1-isobutylaminopropan-2-yl]-9a,11a-dimethyl-1,2,3,3a,5a,6,7,8,9,9a,11,11a-dodecahydrobenzo[c]cyclopenta[h]chromen-5(10H)-one]: at least 125%. Same read-out and setting: to `CC(C)COC[C@@H](C)[C@H]1CC[C@H]2C3=C(CC[C@]12C)[C@@]1(C)CC[C@H](O)C[C@@H]1C(=O)O3` [Compound 81, (1R,3aR,5aS,7S,9aS,11aR)-7-Hydroxy-1-[(S)-1-isobutyloxypropan-2-yl]-9a,11a-dimethyl-1,2,3,3a,5a,6,7,8,9,9a,11,11a-dodecahydrobenzo[c]cyclopenta[h]chromen-5(10H)-one] belongs at least 125%; to `COCO[C@H]1CC[C@]2(C)C3=C(OC(=O)[C@H]2C1)[C@@H]1CC[C@H]([C@H](C)CNCC(C)C)[C@@]1(C)CC3` [Compound 69, (1R,3aR,5aS,7S,9aS,11aR)-1-[(S)-1-Isobutylaminopropan-2-yl]-7-methoxymethoxy-9a,11a-dimethyl-1,2,3,3a,5a,6,7,8,9,9a,11,11a-dodecahydrobenzo[c]cyclopenta[h]chromen-5(10H)-one], at least 125%. Take `CC(C)CCC[C@@H](C)[C@H]1CC[C@H]2C3=C(CC[C@]12C)[C@]1(C)[C@H](C[C@@H](O)[C@H](O)[C@@H]1O)C(=O)O3` [Compound 32, (1R,2S,3R,5S)-1,2,3-trihydroxy-7-oxa-8-cholesten-6-one]: the activity at 0.001 µM is at least 125%.

Take `CC(C)CCC[C@H](C)[C@H]1CC[C@H]2C3=C(CC[C@]12C)[C@@]1(C)CCC(=NO)CC1C(=O)O3` (stereo partly drawn) [Compound 3, (S)-3-Hydroxyimino-7-oxa-8-cholesten-6-one]: the activity at 0.001 µM was at least 125%.

The same assay, now with this note: at 10 nmol/L, relative value, negative control (DMSO) = 100%, wells without cells = 0%, absorbance at 490 nm.
In the case of `CC(C)CCC[C@@H](C)[C@H]1CC[C@@H]2[C@]1(C)CC[C@@]13O[C@@]21OC(=O)[C@H]1CC(=O)CC[C@@]13C` [Compound 94, (5S,8S,9S)-7-Oxa-8,9-epoxy-3,6-cholestadione], the activity at 0.01 µM was at least 125%. The same measure, in the same setting: to `COCO[C@H]1CC[C@]2(C)C3=C(OC(=O)[C@H]2C1)[C@@H]1CC[C@H]([C@H](C)CCCCCCO)[C@@]1(C)CC3` [Compound 74, (1R,3aR,5aS,7S,9aS,11aR)-1-[(R)-8-Hydroxyoctan-2-yl]-7-methoxymethoxy-9a,11a-dimethyl-1,2,3,3a,5a,6,7,8,9,9a,11,11a-dodecahydrobenzo[c]cyclopenta[h]chromen-5(10H)-one] belongs at least 125%. Take `CC(CCC[C@H](C)[C@H]1CC[C@H]2C3=C(CC[C@]12C)[C@@]1(C)CC[C@H](O)C[C@@H]1C(=O)O3)C(=O)O` (stereo partly shown) [Compound 80, 7-Oxa-3-hydroxy-cholest-8(9)-en-6-on-26-acid]: the activity at 0.01 µM is at least 125%. Same read-out and setting: the same measure for `CC(C)C(C)CC[C@H](C)[C@H]1CC[C@H]2C3=C(CC[C@]12C)[C@@]1(C)CC[C@H](O)C[C@@H]1C(=O)O3` (stereo in doubt) [Compound 76, 7-Oxa-ergosta-8(9)-en-6-on-3-ol]: at least 125%; for `CC(C)CCC[C@@H](C)[C@H]1CC[C@H]2C3=C(CC[C@]12C)[C@@]1(C)CCNC(=O)C[C@@H]1C(=O)O3` [Compound 34, (1R,3aR,5aS,10aS,12aR)-10a,12a-Dimethyl-1-[(R)-6-methylheptan-2-yl]-1,2,3,3a,5a,6,9,10,10a,11,12,12a-dodecahydro-8-azacyclohepta[c]cyclopenta[h]chromen-5,7-dione]: at least 125%; for `CC(CO)CCC[C@H](C)[C@H]1CCC2=C3OC(=O)[C@H]4C[C@@H](O)CC[C@]4(C)[C@H]3CC[C@@]21C` (stereo in doubt) [Compound 90, 7-oxa-cholest-8(14)-en-6-on-3,26-diol]: at least 125%.

The same assay, now with this note: at 100 nmol/L, relative value, negative control (DMSO) = 100%, wells without cells = 0%, absorbance at 490 nm.
`CC(C)CCC[C@@H](C)[C@H]1CC[C@H]2[C@H]3OC(=O)[C@H]4CC(=O)CC[C@]4(C)[C@H]3CC[C@]12C` [Compound 93, (1R,3aR,3bR,5aS,9aR,9bR,11aR)-9a,11a-Dimethyl-1-[(R)-6-methylheptan-2-yl]dodecahydrobenzo[c]cyclopenta[h]chromen-5,7(3bH,8H)-dione]: the activity at 0.1 µM was at least 125%. As to `CC(C)CCC[C@@H](C)[C@H]1CC[C@H]2C3=C(CC[C@]12C)[C@]1(C)[C@H](CC=C[C@@H]1O)C(=O)O3` [Compound 21, (1S,5S)-1-Hydroxy-7-oxa-2,8-cholestadien-6-one], the activity at 0.1 µM was at least 125%. Same read-out and setting: to `COCO[C@H]1CC[C@]2(C)C3=C(OC(=O)[C@H]2C1)[C@@H]1CC[C@H]([C@H](C)CN2CCOCC2)[C@@]1(C)CC3` [Compound 72, (1R,3aR,5aS,7S,9aS,11aR)-7-Methoxymethoxy-9a,11a-dimethyl-1[(S)-1-morpholinopropan-2-yl]-1,2,3,3a,5a,6,7,8,9,9a,11,11a-dodecahydrobenzo[c]cyclopenta[h]chromen-5(10H)-one] belongs at least 125%; to `C=CC[C@]12C[C@@H](O)CC[C@]1(C)C1=C(OC2=O)[C@@H]2CC[C@H]([C@H](C)CCCC(C)C)[C@@]2(C)CC1` [Compound 30, (3S,5S)-3-hydroxy-5-allyl-7-oxa-8-cholesten-6-one], at least 125%; to `CC(C)C(=O)CC[C@H](C)[C@H]1CC[C@H]2C3=C(CC[C@]12C)[C@@]1(C)CC[C@H](O)C[C@@H]1C(=O)O3` (stereo in doubt) [Compound 78, 7-Oxa-cholest-8(9)-en-6,24-dion-3-ol], at least 125%. On the same count and under the same terms, to `CC(C)CCC[C@@H](C)[C@H]1CC[C@H]2C3=C(CC[C@]12C)[C@@]1(C)CC[C@H](OCc2ccccc2)C[C@@H]1C(=O)O3` [Compound 47, (3S,5S)-3-Benzyloxy-7-oxa-8-cholesten-6-one] belongs at least 125%.
